Results: patent publication US20160075682A1, “INHIBITORS OF NICOTINAMIDE PHOSPHORIBOSYLTRANSFERASE, COMPOSITIONS, PRODUCTS AND USES THEREOF” (UNIVERSITÀ DEGLI STUDI DEL PIEMONTE ORIENTALE "AMEDEO …, priority 2013, published 2016)

Experiments:
SH-SY5Y, HeLa = assay: MTT cell proliferation assay and trypan blue count (cell viability); format: cell-based; conditions: cells treated for 48 and 72 hours; read-out: IC50 values (inhibition of cellular proliferation, MTT assay and trypan blue assay)
Protocol: Cell based assays were used to evaluate the possible cytotoxic effects of some compounds. To measure cytotoxic effects two different methods were used, a MTT cell proliferation assay and trypan blue count.
The Trypan blue assay is used to determine the number of viable cells present in a cell suspension. […] Briefly, 8×10^5 cells (SH-SY5Y, HeLa; obtained from ATCC, LGC standards, Sesto San Giovanni) were seeded in 24-well plates and treated for 48 and 72 hours. After the treatments, cells were stained with trypan blue and counted.
To analyze cell viability was used the colorimetric 3-(4,5-dimethylthiazol-2-yl)-2,5-diphenyltetrazolium bromide (MTT) method. The assay is based on the cleavage of the yellow tetrazolium salt MTT to purple formazan crystals by metabolic active cells. Since reduction of MTT can only occur in metabolically active cells, the level of activity is a measure of the viability of cells and conversely the cytotoxic effects of various treatments. Briefly, 8×10^5 cells (SH-SY5Y, code number CRL-2266; and HeLa, code number CCL-2) were seeded in 24-well plates and treated for 48 and 72 hours. Compounds were dissolved in DMSO and were added to the cells to give a final DMSO concentration no greater than 0.5%. Cells were washed once in Locke buffer and 300 μl of MTT (250 μg/ml in Locke buffer) were added before returning the cells to the incubator for 1 h to allow the formation of the purple formazan crystals. After 1 h, 600 μl of isopropanol/0.1 M HCl were added to each well, and the absorbance was read at 570 nm in a plate reader (Victor3V, PerkinElmer Life Sciences). For some compounds a dose response curve and IC50 for the effects on cell viability and proliferation were calculated. Cell lines used were originally purchased from ATCC (LGC standards. Sesto San Giovanni).
To evaluate the ability of each compound to inhibit cellular proliferation, cells were seeded in 24-well plates and treated for 48 and 72 hours. After the treatments the MTT assay and trypan blue assay were performed.

NAMPT = biological target: T1, NAMPT (Homo sapiens, UniProt P43490); assay: Direct inhibition of NAMPT enzymatic activity (Cyclex NAMPT colorimetric Assay Kit); format: biochemical; conditions: as assessed with a cycling assay
T1 construct: endogenous in cells; host or cells: SH-SY5Y and HeLa
T1 sequence (P43490 whole entry): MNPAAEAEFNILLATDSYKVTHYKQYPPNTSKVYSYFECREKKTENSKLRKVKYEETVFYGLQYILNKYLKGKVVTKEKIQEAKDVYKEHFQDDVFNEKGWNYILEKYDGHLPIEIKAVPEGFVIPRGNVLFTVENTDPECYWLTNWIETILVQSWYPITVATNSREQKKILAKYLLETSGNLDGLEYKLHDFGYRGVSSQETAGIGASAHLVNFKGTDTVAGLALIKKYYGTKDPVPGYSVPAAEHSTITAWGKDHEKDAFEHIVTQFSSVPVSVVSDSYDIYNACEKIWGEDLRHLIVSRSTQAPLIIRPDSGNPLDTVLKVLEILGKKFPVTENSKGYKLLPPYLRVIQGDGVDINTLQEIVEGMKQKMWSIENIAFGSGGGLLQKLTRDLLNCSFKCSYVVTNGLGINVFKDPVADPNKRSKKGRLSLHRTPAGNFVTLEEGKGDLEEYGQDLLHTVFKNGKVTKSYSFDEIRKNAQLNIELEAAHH
Protocol: Determination of the direct activity of compounds on NAMPT was performed using a commercial kit, Cyclex NAMPT colorimetric Assay Kit.

Structure (SMILES)	melting point [°C]	IC50 (SH-SY5Y, HeLa) [nM]	inhibition of the enzymatic activity of NAMPT (NAMPT)
O=C(NCCCCCCCCn1cc(-c2cccnc2)nn1)Nc1ccccc1-c1ccccc1 [1-([1,1′-biphenyl]-2-il)-3-(8-(4-(pyridin-3-yl)-1H-1,2,3-triazol-1-yl)octyl)urea]	90 to 95	< 300	–
O=C(NCCCCCCn1cc(-c2cccnc2)nn1)Nc1ccccc1-c1ccccc1 [1-([1,1′-biphenyl]-2-yl)-3-(6-(4-(pyridin-3-yl)-1H-1,2,3-triazol-1-yl)hexyl)urea]	–	< 300	able to inhibit
O=S(=O)(NCCc1ccc(Cn2cc(-c3cccnc3)nn2)cc1)c1ccccc1Br [2-bromo-N-(4-((4-(pyridin-3-yl)-1H-1,2,3-triazol-1-yl)methyl)phenethyl)benzenesulfonamide]	–	< 300	–
O=S(=O)(NCCCCCCn1cc(-c2cccnc2)nn1)c1ccccc1Br [2-bromo-N-(6-(4-(pyridin-3-yl)-1H-1,2,3-triazol-1-yl)hexyl)benzene sulfonamide]	–	< 300	–
O=S(=O)(NCCCCCCCn1cc(-c2cccnc2)nn1)c1ccccc1Br [2-bromo-N-(7-(4-(pyridin-3-yl)-1H-1,2,3-triazol-1-yl)heptyl)benzene sulfonamide]	–	< 300	–
O=S(=O)(NCCCCCCCCn1cc(-c2cccnc2)nn1)c1ccccc1Br [2-bromo-N-(8-(4-(pyridin-3-yl)-1H-1,2,3-triazol-1-yl)octyl)benzene sulfonamide]	–	< 300	–
O=C(NCCCCCCCn1cc(-c2cccnc2)nn1)c1ccccc1I [2-iodo-N-(7-(4-(pyridin-3-yl)-1H-1,2,3-triazol-1-yl)heptyl)benzamide]	106 to 108	< 300	–
O=C(O)c1cccc(-c2ccccc2OCCCCCCn2cc(-c3cccnc3)nn2)c1 [2′-((6-(4-(pyridin-3-yl)-1H-1,2,3-triazol-1-yl)hexyl)oxy)-[1,1′-biphenyl]-3-carboxylic acid]	–	< 300	–
O=C(O)c1ccc(-c2ccccc2OCCCCCCn2cc(-c3cccnc3)nn2)cc1 [2′-((6-(4-(pyridin-3-yl)-1H-1,2,3-triazol-1-yl)hexyl)oxy)-[1,1′-biphenyl]-4-carboxylic acid]	–	< 300	–
O=C(O)c1ccc(-c2ccccc2C(=O)NCCCCCCCn2cc(-c3cccnc3)nn2)cc1 [2′-((7-(4-(pyridin-3-yl)-1H-1,2,3-triazol-1-yl)heptyl)carbamoyl)-[1,1′-biphenyl]-4-carboxylic acid]	–	< 300	–
Cc1ccccc1-c1ccccc1C(=O)NCCCCCCCn1cc(-c2cccnc2)nn1 [2′-methyl-N-(7-(4-(pyridin-3-yl)-1H-1,2,3-triazol-1-yl)heptyl)-[1,1′-biphenyl]-2-carboxamide]	–	< 300	able to inhibit
c1ccc(-c2ccccc2-c2cn(CCc3ccc(Cn4cc(-c5cccnc5)nn4)cc3)nn2)cc1 [3-(1-(4-(2-(4-([1,1′-biphenyl]-2-yl)-1H-1,2,3-triazol-1-yl)ethyl)benzyl)-1H-1,2,3-triazol-4-yl)pyridine]	139 to 141	< 300	–
c1ccc(-c2ccccc2OCc2ccc(CCn3cc(-c4cccnc4)nn3)cc2)cc1 [3-(1-(4-(([1,1′-biphenyl]-2-yloxy)methyl)phenethyl)-1H-1,2,3-triazol-4-yl)pyridine]	136 to 137	< 300	–
c1ccc(-c2ccccc2-c2cn(CCCCCCn3cc(-c4cccnc4)nn3)nn2)cc1 [3-(1-(6-(4-([1,1′-byphenyl]-2-yl)-1H-1,2,3-triazol-1-yl)hexyl)-1H-1,2,3-triazol-4-yl)pyridine]	139 to 140	< 300	–
c1ccc(-c2cn(CCCCCCn3cc(-c4cccnc4)nn3)nn2)cc1 [3-(1-(6-(4-phenyl-1H-1,2,3-triazol-1-yl)hexyl)-1H-1,2,3-triazol-4-yl)pyridine]	172 to 173	–	–
Cc1ccccc1-c1ccccc1OCCCCCCn1cc(-c2cccnc2)nn1 [3-(1-(6-((2′-methyl-[1,1′-biphenyl]-2-yl)oxy)hexyl)-1H-1,2,3-triazol-4-yl)pyridine]	–	< 300	–
c1ccc(OCCCCCCn2cc(-c3cccnc3)nn2)cc1 [3-(1-(6-phenoxyhexyl)-1H-1,2,3-triazol-4-yl)pyridine]	74 to 75	–	–
c1ccc(-c2cn(CCCCCCCn3cc(-c4cccnc4)nn3)nn2)cc1 [3-(1-(7-(4-phenyl-1H-1,2,3-triazol-1-yl)heptyl)-1H-1,2,3-triazol-4-yl)pyridine]	143 to 144	–	–

Structure (SMILES)	melting point [°C]	IC50 (SH-SY5Y, HeLa) [nM]	inhibition of the enzymatic activity of NAMPT (NAMPT)
c1ccc(-c2ccccc2OCCCCCCCn2cc(-c3cccnc3)nn2)cc1 [3-(1-(7-([1,1′-biphenyl]-2-yloxy)heptyl)-1H-1,2,3-triazol-4-yl)pyridine]	–	< 300	able to inhibit
c1ccc(OCCCCCCCn2cc(-c3cccnc3)nn2)cc1 [3-(1-(7-phenoxyheptyl)-1H-1,2,3-triazol-4-yl)pyridine]	90.5 to 91	–	–
c1ccc(-c2ccccc2-c2cn(CCCCCCCCn3cc(-c4cccnc4)nn3)nn2)cc1 [3-(1-(8-(4-([1,1′-byphenyl]-2-yl)-1H-1,2,3-triazol-1-yl)octyl)-1H-1,2,3-triazol-4-yl)pyridine]	136 to 140	< 300	–
c1ccc(OCCCCCCCCn2cc(-c3cccnc3)nn2)cc1 [3-(1-(8-phenoxyoctyl)-1H-1,2,3-triazol-4-yl)pyridine]	102 to 103	–	–
O=C(Nc1ccccc1-c1ccccc1)OCCc1ccc(Cn2cc(-c3cccnc3)nn2)cc1 [4-((4-(pyridin-3-yl)-1H-1,2,3-triazol-1-yl)methyl)phenethyl[1,1′-biphenyl]-2-ylcarbamate]	131 to 132	< 300	–
O=C(Nc1ccccc1-c1ccccc1)OCCCCCCCCn1cc(-c2cccnc2)nn1 [8-(4-(pyridin-3-yl)-1H-1,2,3-triazol-1-yl)octyl[1,1′-biphenyl]-2-ylcarbamate]	81 to 85	< 300	–
O=C(NCCCc1ccc(-n2cc(-c3cccnc3)nn2)cc1)c1ccccc1-c1ccccc1 [N-(3-(4-(4-(pyridin-3-yl)-1H-1,2,3-triazol-1-yl)phenyl)propyl)-[1,1′-biphenyl]-2-carboxamide]	202 to 203	< 300	–
O=C(NCc1ccc(CCn2cc(-c3cccnc3)nn2)cc1)c1ccccc1-c1ccccc1 [N-(4-(2-(4-(pyridin-3-yl)-1H-1,2,3-triazol-1-yl)ethyl)benzyl)-[1,1′-biphenyl]-2-carboxamide]	204 to 205	< 300	–
O=S(=O)(NCCc1ccc(Cn2cc(-c3cccnc3)nn2)cc1)c1ccccc1-c1ccccc1 [N-(4-((4-(pyridin-3-yl)-1H-1,2,3-triazol-1-yl)methyl)phenethyl)-[1,1′-biphenyl]-sulfonamide]	–	< 300	–
O=S(=O)(NCCCCCCn1cc(-c2cccnc2)nn1)c1ccccc1-c1ccccc1 [N-(6-(4-(pyridin-3-yl)-1H-1,2,3-triazol-1-yl)hexyl) biphenyl-2-sulfonamide]	–	< 300	–
O=S(=O)(NCCCCCCCn1cc(-c2cccnc2)nn1)c1ccccc1-c1ccccc1 [N-(7-(4-(pyridin-3-yl)-1H-1,2,3-triazol-1-yl)heptyl) biphenyl-2-sulfonamide]	–	< 300	–
O=C(NCCCCCCCn1cc(-c2cccnc2)nn1)c1ccccc1 [N-(7-(4-(pyridin-3-yl)-1H-1,2,3-triazol-1-yl)heptyl)benzamide]	123 to 124	–	–
c1ccc(-c2ccccc2CNCCCCCCn2cc(-c3cccnc3)nn2)cc1 [N-([1,1′-biphenyl]-2-ylmethyl)-6-(4-(pyridin-3-yl)-1H-1,2,3-triazol-1-yl)hexan-1-amine]	55 to 58	< 300	–
c1ccc(-c2ccccc2CNCCCCCCCn2cc(-c3cccnc3)nn2)cc1 [N-([1,1′-biphenyl]-2-ylmethyl)-7-(4-(pyridin-3-yl)-1H-1,2,3-triazol-1-yl)heptan-1-amine]	86 to 91	< 300	–
c1ccc(-c2ccccc2CNCCCCCCCCn2cc(-c3cccnc3)nn2)cc1 [N-([1,1′-biphenyl]-2-ylmethyl)-8-(4-(pyridin-3-yl)-1H-1,2,3-triazol-1-yl)octan-1-amine]	–	< 300	–
c1ccc(-c2ccccc2CNCCc2ccc(Cn3cc(-c4cccnc4)nn3)cc2)cc1 [N-([1,1′-biphenyl]-ylmethyl)-2-(4-((4-(pyridin-3-yl)-1H-1,2,3-triazol-1-yl)methy)phenyl)ethanamine]	–	< 300	–
NC(=O)c1ccccc1-c1ccccc1C(=O)NCCCCCCCn1cc(-c2cccnc2)nn1 [N^2-(7-(4-(pyridin-3-yl)-1H-1,2,3-triazol-1-yl)heptyl)-[1,1′-biphenyl]-2,2′-dicarboxamide]	100 to 101	–	–
